Test [1] addresses T1, human 5-HT4R (5-HT4(b) receptor membranes) (Homo sapiens, UniProt Q13639).
T1 construct: purchased Millipore HTS110M
Nature of the test: h5-HT4R competition binding with [3H]-GR113808. The conditions noted are these: for inhibition: 0.2 nM [3H]-GR113808. The procedure:
The competition studies used membrane preparations made from proprietary stable recombinant cell lines expressing the 5-HT4(b) receptor to ensure high-level of GPCR surface expression (HTS110M, Millipore). Membranes (2.5 µg protein) were incubated in duplicate at 25 °C for 60 min in the absence or the presence of 10^–6 or 10^–8M of each drug and 0.2 nM [^3H]-GR 113808 (VT 240, ViTrax) in 25 mM Tris buffer (pH 7.4, 25 °C). At the end of the incubation, homogenates were filtered through Whatman GF/C filters (Alpha Biotech) pre-soaked with 0.5% polyethylenimine using a Brandel cell harvester. Filters were subsequently washed three times with 4 mL of ice-cold 25 mM Tris buffer (pH 7.4, 4 °C). Non-specific binding was evaluated in parallel in the presence of 30 μM serotonin.
For some of these compounds, affinity constants were calculated from five-point inhibition curves using the EBDA-Ligand software and expressed as Ki ± SD[41].

In test [2] the target is T2, HA-tagged human 5-HT4 receptor (Homo sapiens, UniProt Q13639).
T2 construct: HA; expressed in transfected cells; host or cells: COS-7 cells (ATCC CRL-1651), transient transfection
T2 sequence (Q13639 whole entry): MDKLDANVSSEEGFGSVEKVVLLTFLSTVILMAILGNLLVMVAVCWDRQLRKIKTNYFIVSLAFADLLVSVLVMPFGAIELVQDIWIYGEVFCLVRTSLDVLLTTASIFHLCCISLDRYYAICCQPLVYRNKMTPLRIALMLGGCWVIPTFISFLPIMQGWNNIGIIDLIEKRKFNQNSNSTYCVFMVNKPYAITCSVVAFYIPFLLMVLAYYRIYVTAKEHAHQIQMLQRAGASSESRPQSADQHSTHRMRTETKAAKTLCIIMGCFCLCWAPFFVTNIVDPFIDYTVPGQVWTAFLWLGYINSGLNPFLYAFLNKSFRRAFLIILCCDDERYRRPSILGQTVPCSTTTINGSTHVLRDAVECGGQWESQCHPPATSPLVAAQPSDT
Kind of test: cAMP production, competition assay in antagonist mode vs serotonin, transfected COS-7 cells. It counts as cell-based. Conditions: for Bott. AMPc: antagonist mode. The source says:
(§1) Figure 5 Determination of the 5-HT4 pharmacological profiles for compounds 16, 32a and 33 by quantification of cAMP production. (A) Assay to determine the agonism activity (with serotonin and the partial agonist RS-67333 as references). (B) Assay to determine the antagonism activity (with the antagonist GR113808 as reference). Data presented are the mean of three independent experiments performed in duplicate.
(§2) COS-7 cells were purchased from ATCC (ATCC CRL-1651; LGC […], Molsheim, France). T were grown in Dulbecco’s modified Eagle medium (DMEM) supplemented with 10% dialyzed fetal calf serum (dFCS) and antibiotics. Cells were transiently transfected with plasmid encoding HA-tagged human 5-HT4 receptor, then seeded in 96-well plates (35,000 cells/well). 24 hrs after transfection, cells were washed once with 200 µl of HBS (20 mM HEPES; 150 mM NaCl; 4.2 mM KCl; 0.9 mM CaCl2; 0.5 mM MgCl2; 0.1% glucose; 0.1% BSA) and, after HBS removal, exposed to the indicated concentrations of 5-HT4R ligands in the presence of 0.1 mM of the phosphodiesterase inhibitor RO-20-1724, at 37 °C in 100 µl of HBS. After 10 min, cells were then lysed by addition of the same volume of Triton-X100 (0.1%) during 30 min at 37 °C. The competition assay in antagonist mode was performed as follows: after one wash in 200 µl of HBS, cells were exposed to 5-HT4R ligands at twice the indicated concentration, at 37 °C in 50 µl of HBS. After 7 min, serotonin (final concentration of 5.10^−7M) was added in 50 µl of HBS in the presence of the phosphodiesterase inhibitor RO-20-1724 (final concentration of 0.1 mM). After 10 min, cells were then lysed by addition of the same volume of Triton-X100 (0.1%) during 30 min at 37 °C. Quantification of cAMP production was performed by HTRF by using the cAMP Dynamic kit (Cisbio Bioassays) according to the manufacturer’s instructions
(In general: Changes in cAMP serve as a functional read-out for many G protein-coupled receptors.)

The target in test [3] is T3, hAChE (AChE from human erythrocytes) (Homo sapiens, UniProt P22303).
T3 construct: AChE from human erythrocytes; purchased Sigma Aldrich; host or cells: human erythrocytes (tissue-derived enzyme)
T3 sequence (P22303 other isoform, or with tags, fused parts or gaps): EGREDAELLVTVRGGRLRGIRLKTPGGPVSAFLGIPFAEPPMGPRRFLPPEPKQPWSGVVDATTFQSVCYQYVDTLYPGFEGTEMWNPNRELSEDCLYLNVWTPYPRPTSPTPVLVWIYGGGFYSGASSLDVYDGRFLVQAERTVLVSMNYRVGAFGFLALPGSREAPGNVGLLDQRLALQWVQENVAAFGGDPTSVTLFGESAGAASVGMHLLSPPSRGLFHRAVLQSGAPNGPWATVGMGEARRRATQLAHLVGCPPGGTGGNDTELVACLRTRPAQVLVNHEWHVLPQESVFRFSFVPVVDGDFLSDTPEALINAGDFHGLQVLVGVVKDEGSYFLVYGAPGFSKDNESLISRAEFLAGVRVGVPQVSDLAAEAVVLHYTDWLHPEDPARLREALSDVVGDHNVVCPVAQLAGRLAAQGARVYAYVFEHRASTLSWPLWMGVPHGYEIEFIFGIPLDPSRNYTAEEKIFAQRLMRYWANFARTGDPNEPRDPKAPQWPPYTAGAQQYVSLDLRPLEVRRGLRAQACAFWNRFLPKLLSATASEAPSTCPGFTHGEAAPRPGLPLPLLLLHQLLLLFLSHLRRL
Nature of the test: hAChE inhibition, spectrometric Ellman method. The format is biochemical. The protocol: Inhibitory capacity of compounds on AChE biological activity was evaluated through the use of the spectrometric method of Ellman[39]. Acetylthiocholine and 5,5-dithiobis-(2-nitrobenzoic) acid (DTNB) were purchased from Sigma Aldrich. AChE from human erythrocytes (buffered aqueous solution, ≥500 units/mg protein (BCA), Sigma Aldrich) was diluted in 20 mM HEPES buffer pH 8, 0.1% Triton X-100 such as to have enzyme solution with 0.25 unit/mL enzyme activity. In the procedure, 100 μL of 0.3 mM DTNB dissolved in phosphate buffer pH 7.4 were added into the 96 wells plate followed by 50 μL of test compound solution and 50 μL of enzyme ([…]). After 5 min of preincubation at 25 °C, the reaction was then initiated by the injection of 50 μL of 10 mM acetylthiocholine iodide solution. The hydrolysis of acetylthiocholine was monitored by the formation of yellow 5-thio-2-nitrobenzoate anion as the result of the reaction of DTNB with thiocholine, released by the enzymatic hydrolysis of acetylthiocholine, at a wavelength of 412 nm using a 96-well microplate plate reader (TECAN Infinite M200, Lyon, France). Test compounds were dissolved in analytical grade DMSO. Donepezil was used as a reference standard. The rate of absorbance increase at 412 nm was followed every minute for 10 min. Assays were performed with a blank containing all components except acetylthiocholine, in order to account for non-enzymatic reaction. The reaction slopes were compared and the percent inhibition due to the presence of test compounds was calculated by the following expression: 100 − (vi/v0 × 100) where vi is the rate calculated in the presence of inhibitor and v0 is the enzyme activity.
For the compounds with significant inhibition (≥50%), IC50 values were determined graphically by plotting the % inhibition versus the logarithm of six inhibitor concentrations in the assay solution using the Origin software.
(Ellman's reagent forms a yellow product with free thiols.)

In test [4] the target is T2, HA-tagged human 5-HT4 receptor. Kind of test: cAMP production, agonist mode, transfected COS-7 cells. The conditions noted are these: for Top AMPc / EC50 / Log(EC50): agonist mode; for EC50: unit not given; for Log(EC50): given as Log(EC50). It counts as cell-based.
Excerpt: as §1, §2

The test system of test [5] is 5-HT4dR. Conditions: cited from earlier work.
Test [6] deals with BuChE. Set-up: method as in PMID 8064800. The conditions noted are these: cited from earlier work.
Test [7] concerns AChE. Conditions: read-out: AChE IC50; cited from earlier work.
Details of test [8]: method as in PMID 8064800. The conditions noted are these: mouse; cited from earlier work.
Details of test [9]: method as in PMID 8064800. The conditions noted are these: cited from earlier work.
For test [10], the target named is h5-HT4eR. Conditions: donecopride reference value; read-out: 5-HT4R Ki; cited from earlier work.
Test [11] relates to 5-HT4R. The conditions noted are these: cited from earlier work.
On the set-up of test [12]: method as in PMID 25157130. The conditions noted are these: mice; cited from earlier work.
In test [13] the test system is hAChE. Details: method as in PMID 25157130. Conditions: donecopride reference value; cited from earlier work.
The mark [14] stands for this setting: individual experiments HP5, HP6, HP7.

Data on 4 compounds can be found in paper PMC7033111, “Rational design of novel benzisoxazole derivatives with acetylcholinesterase inhibitory and serotoninergic 5-HT4 receptors activities for the treatment of Alzheimer’s disease” (Scientific Reports, 2020).

Several values for one entry are separate records, joined by “and”; a condition that tells them apart may be missing. Equal values may be shown once. Read-outs that look alike come from different tables or passages of the source.

T1 sequence (Q13639 whole entry): as the sequence (Q13639 whole entry) above

One may read the Ki as a measure of affinity in units of concentration, obtained from inhibition or displacement. Usually inhibition stands for the share of the control response that was lost under treatment. The IC50 is the midpoint of a concentration-inhibition curve. What is called EC50 is the concentration that produces a half-maximal response. With `Oc1cccc2onc(CCC3CCN(CC4CCCCC4)CC3)c12` [Compound 33], the affinity in test [1], expressed as Ki, was 37 ± 10.5 nM. The inhibition was 100% in [1] (10^−6 M compound, read-out: h5-HT4R % inhibition at 10^−6 M (converted)) and 29% in test [1] (10^−8 M compound, read-out: h5-HT4R % inhibition at 10^−8 M (converted)). The IC50 in test [2] (IC50 (5-HT4R antagonist, cAMP production), COS-7 cells, serotonin 5.10^−7 M, mean of three experiments) was 883 ± 598 nM; in test [3] (Ellman method, n = 2) it was 97.3 ± 1.5 nM. The “Bott. AMPc” value in test [2] (Moy.) was 44%; in test [2] (individual experiments HP8, HP10, HP11) it was 50.44% and 46.43% and 34.27%. Moreover, the “5-HT4 pharmacological profile (antagonism assay)” value in test [2] (cAMP production, COS-7 cells) is “antagonists”. Further, 1 µM produced 87% inhibition in test [3] (10^−6 M compound). In addition, the “Top AMPc” value is -3% in test [4] (Moy.); -15.21% and 4.96% and 0.00% in [4] (setting [14]). The EC50 result in [4] (Moy. (mean of HP5-HP7)) and in [4] (setting [14]) was “ns” in each case. The “Log(EC50)” value is listed as “ns” in test [4] (Moy., negative) and “ns” in test [4] (setting [14]). In test [4] (cAMP production, COS-7 cells), the “5-HT4 pharmacological profile (agonism assay)” value is on record as “not agonist”.

Take `OC1(CN2CCC(COc3noc4cccc(O[C@@H]5CCOC5)c34)CC2)CCOCC1` [[A]]: in test [5], the “5-HT4dR Emax” value is reported as 24% and the EC50 was 0.2 nM.

On to `CC(=O)Nc1ccc2c(CCC3CCN(Cc4ccccc4)CC3)noc2c1` [[B]], for which the values for the IC50 in test [6] and in test [7] were 9000 nM and 2.8 nM, respectively. Also, the “ratio BuAChE/AChE” value in test [6] (selectivity ratio) was 3200. The “effect on amnesia, passive avoidance model” value in test [8] was “reversion of amnesia”. The “elevation of ACh in mouse” value in [9] is listed as “dose-dependent elevation of ACh”.

For `COc1cc(N)c(Cl)cc1C(=O)CCC1CCN(CC2CCCCC2)CC1` [donecopride], the Ki in test [10] was 8.5 ± 0.3 nM. In addition, the “% of control agonist response (5-HT4R)” value in [11] was 48%. In test [12], the “in vivo effects, object recognition test” value was “improvement of memory performances”. For the same compound, the IC50 in [13] was 16 ± 5 nM.
